Several values for one entry are separate records, joined by “and”; a condition that tells them apart may be missing. Equal entries are not always repeated.
Legend:
PKCβII = target: T1, PKCβII (Homo sapiens, UniProt P05771); experiment: Lance-FRET kinase assay, PKCβII; format: biochemical; conditions: Figure 1B
T1 construct: purchased SignalChem Biotech
Experimental: Kinase assays. CP612 was assayed against His-AVI–tagged human PKCε (1 nM) produced in Sf9 cells, and ROCK1 (Carna Biosciences; 5 nM) using the Lance-FRET kinase assay system (PerkinElmer Revvity). Other human recombinant PKCs (SignalChem Biotech) were assayed in triplicate at the following concentrations: PKCβII 1.6 nM, PKCγ 500 pM, PKCδ 5 nM, PKCθ 500 pM, and PKCζ 500 pM. PKCs were incubated in a 15 μL reaction volume with kinase buffer (20 mM Tris-HCL [pH 7.4], 10 mM MgCl2, 0.25 mM EGTA, 0.1 mg/mL BSA, and 0.15% Triton X-100), 50 nM ULight-labeled CREBtide […] (PerkinElmer, TRF0107, Revvity), and test compound. […] After incubation at 27°C for another 60 minutes, phosphorylation was detected using a FlexStation 3 Microplate Reader (Molecular Devices) in LANCE TR-FRET mode (excitation = 340 nm, emission = 665 nm) and expressed as relative fluorescence units (RFU). The percentage of inhibition was calculated as: (signal without test compound − signal with test compound)/(signal without test compound − signal without ATP) × 100. […]
Kinase assays used 11-point concentration-response curves and results were analyzed by nonlinear regression using Prism 9 (GraphPad Software) to determine IC50 values. […] Scores for pain threshold, conditioned place preference, and self-administration were analyzed by ANOVA using the following factors. […]

PKCε = target: T2, PKCε (Homo sapiens, UniProt Q02156); experiment: PKCε activity with increasing ATP and CP612 (ATP competition); format: biochemical; parameters: His; AVI; made in house; host or cells: Sf9 cells; conditions: for Kinase activity (% control): PKCε, log [CP612]
T2 sequence (Q02156 1-737): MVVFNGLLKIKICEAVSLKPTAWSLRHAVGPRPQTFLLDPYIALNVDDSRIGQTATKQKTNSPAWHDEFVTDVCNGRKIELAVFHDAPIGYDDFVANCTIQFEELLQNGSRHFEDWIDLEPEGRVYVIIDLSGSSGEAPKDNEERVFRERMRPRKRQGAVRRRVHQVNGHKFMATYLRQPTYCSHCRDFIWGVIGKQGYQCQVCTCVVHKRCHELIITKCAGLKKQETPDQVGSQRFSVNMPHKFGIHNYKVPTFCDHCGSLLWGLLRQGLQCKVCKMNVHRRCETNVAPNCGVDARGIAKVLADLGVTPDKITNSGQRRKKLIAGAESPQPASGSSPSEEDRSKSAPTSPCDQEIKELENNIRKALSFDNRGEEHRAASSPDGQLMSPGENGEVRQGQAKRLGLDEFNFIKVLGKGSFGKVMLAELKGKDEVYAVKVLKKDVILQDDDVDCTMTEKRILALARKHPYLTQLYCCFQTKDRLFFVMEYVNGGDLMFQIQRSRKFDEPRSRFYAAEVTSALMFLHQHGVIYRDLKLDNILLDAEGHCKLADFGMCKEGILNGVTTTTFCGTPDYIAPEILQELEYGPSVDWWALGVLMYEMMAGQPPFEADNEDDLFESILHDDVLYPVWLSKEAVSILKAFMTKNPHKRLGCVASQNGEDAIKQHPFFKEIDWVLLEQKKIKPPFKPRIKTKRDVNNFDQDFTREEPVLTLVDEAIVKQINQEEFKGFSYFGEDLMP
Experimental: Therefore, we assayed PKCε activity with increasing concentrations of ATP and in the presence of increasing concentrations of CP612.
Kinase assays. CP612 was assayed against His-AVI–tagged human PKCε (1 nM) produced in Sf9 cells, and ROCK1 (Carna Biosciences; 5 nM) using the Lance-FRET kinase assay system (PerkinElmer Revvity). Other human recombinant PKCs (SignalChem Biotech) were assayed in triplicate at the following concentrations: PKCβII 1.6 nM, PKCγ 500 pM, PKCδ 5 nM, PKCθ 500 pM, and PKCζ 500 pM. PKCs were incubated in a 15 μL reaction volume with kinase buffer (20 mM Tris-HCL [pH 7.4], 10 mM MgCl2, 0.25 mM EGTA, 0.1 mg/mL BSA, and 0.15% Triton X-100), 50 nM ULight-labeled CREBtide […] (PerkinElmer, TRF0107, Revvity), and test compound. […] after 60 minutes with 10 μL of 2.5× Stop Solution/Detection Mix containing 20 mM EDTA and 4 nM LANCE Ultra Europium anti–phospho-[…] peptide antibody (PerkinElmer, TRF0200, Revvity). After incubation at 27°C for another 60 minutes, phosphorylation was detected using a FlexStation 3 Microplate Reader (Molecular Devices) in LANCE TR-FRET mode (excitation = 340 nm, emission = 665 nm) and expressed as relative fluorescence units (RFU). The percentage of inhibition was calculated as: (signal without test compound − signal with test compound)/(signal without test compound − signal without ATP) × 100. The Z’ factor for this assay ranged between 0.72 and 0.86.

T1 sequence (P05771 1-673 isoform P05771-2): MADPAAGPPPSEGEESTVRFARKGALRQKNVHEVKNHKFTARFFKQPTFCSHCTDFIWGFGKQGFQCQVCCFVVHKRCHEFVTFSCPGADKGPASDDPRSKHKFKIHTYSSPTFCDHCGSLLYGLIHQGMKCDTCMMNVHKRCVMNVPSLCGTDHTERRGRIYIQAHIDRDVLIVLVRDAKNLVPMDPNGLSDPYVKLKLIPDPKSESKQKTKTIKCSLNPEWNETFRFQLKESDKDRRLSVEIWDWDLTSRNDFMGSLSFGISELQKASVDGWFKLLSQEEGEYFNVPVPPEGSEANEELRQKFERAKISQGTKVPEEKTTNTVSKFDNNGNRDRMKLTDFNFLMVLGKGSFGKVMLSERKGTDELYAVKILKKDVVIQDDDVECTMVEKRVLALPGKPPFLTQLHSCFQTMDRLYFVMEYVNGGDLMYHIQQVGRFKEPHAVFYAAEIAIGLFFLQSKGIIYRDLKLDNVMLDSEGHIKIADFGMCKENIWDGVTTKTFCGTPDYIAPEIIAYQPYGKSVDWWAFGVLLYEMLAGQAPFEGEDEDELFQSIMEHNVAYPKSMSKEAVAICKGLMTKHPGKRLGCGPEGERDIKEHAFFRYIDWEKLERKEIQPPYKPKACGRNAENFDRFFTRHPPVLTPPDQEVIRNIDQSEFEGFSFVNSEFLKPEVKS

## N[C@H](CNC(=O)C1(c2ccc(Cl)cc2)CCCC1)c1ccc(C(=O)Nc2ccncc2)cc1 [CP612]
PKCβII
  Inhibition of conventional PKCβII: weakly inhibited
PKCε; 300 nM CP612
  Increase of EC50 for ATP: 40 fold
PKCε; [ATP] 0.183 µM, M -8.523, 0.183 µM
  Kinase activity (% control): 47.534 % control and 24.462 % control and 35.552 % control
PKCε; [ATP] 0.73 µM, M -6, 0.73 µM
  Kinase activity (% control): 0.864 % control and 1.238 % control
PKCε; [ATP] 2.93 µM, M -5.523, 2.93 µM
  Kinase activity (% control): 0.280 % control and 0.321 % control
PKCε; [ATP] 2.93 µM, M -6, 2.93 µM
  Kinase activity (% control): 1.498 % control and 2.443 % control
PKCε; [ATP] 2.93 µM, M -6.523, 2.93 µM
  Kinase activity (% control): 4.077 % control and 4.559 % control
PKCε; [ATP] 2.93 µM, M -7, 2.93 µM
  Kinase activity (% control): 8.910 % control and 10.659 % control
PKCε; [ATP] 2.93 µM, M -7.523, 2.93 µM
  Kinase activity (% control): 20.262 % control and 21.135 % control
PKCε; [ATP] 2.93 µM, M -8, 2.93 µM
  Kinase activity (% control): 38.517 % control and 38.535 % control
PKCε; [ATP] 2.93 µM, M -8.523, 2.93 µM
  Kinase activity (% control): 63.294 % control and 62.615 % control
PKCε; [ATP] 11.67 µM, M -6, 11.67 µM
  Kinase activity (% control): 4.132 % control and 3.783 % control
PKCε; [ATP] 11.67 µM, M -6.523, 11.67 µM
  Kinase activity (% control): 10.586 % control and 9.278 % control
PKCε; [ATP] 11.67 µM, M -7, 11.67 µM
  Kinase activity (% control): 20.490 % control and 19.346 % control
PKCε; [ATP] 11.67 µM, M -7.523, 11.67 µM
  Kinase activity (% control): 38.625 % control and 36.759 % control
PKCε; [ATP] 11.67 µM, M -8, 11.67 µM
  Kinase activity (% control): 63.930 % control and 57.174 % control
PKCε; [ATP] 11.67 µM, M -8.523, 11.67 µM
  Kinase activity (% control): 75.246 % control and 100.913 % control and 75.385 % control
PKCε; [ATP] 49 µM, M -6, 49 µM
  Kinase activity (% control): 10.798 % control and 9.001 % control
PKCε; [ATP] 49 µM, M -6.523, 49 µM
  Kinase activity (% control): 25.250 % control and 20.067 % control
PKCε; [ATP] 49 µM, M -7, 49 µM
  Kinase activity (% control): 46.048 % control and 35.068 % control
PKCε; [ATP] 49 µM, M -7.523, 49 µM
  Kinase activity (% control): 52.594 % control and 73.832 % control and 56.661 % control
PKCε; [ATP] 49 µM, M -8, 49 µM
  Kinase activity (% control): 73.818 % control and 104.476 % control and 73.273 % control
PKCε; [ATP] 49 µM, M -8.523, 49 µM
  Kinase activity (% control): 102.193 % control and 87.045 % control
PKCε; [ATP] 187 µM, M -6, 187 µM
  Kinase activity (% control): 22.653 % control and 20.507 % control
PKCε; [ATP] 187 µM, M -6.523, 187 µM
  Kinase activity (% control): 46.882 % control and 37.693 % control
PKCε; [ATP] 187 µM, M -7, 187 µM
  Kinase activity (% control): 75.602 % control and 55.920 % control
PKCε; [ATP] 187 µM, M -7.523, 187 µM
  Kinase activity (% control): 95.087 % control and 100.001 % control and 71.937 % control
PKCε; [ATP] 187 µM, M -8, 187 µM
  Kinase activity (% control): 104.191 % control and 87.275 % control
PKCε; [ATP] 187 µM, M -8.523, 187 µM
  Kinase activity (% control): 106.161 % control and 97.914 % control
PKCε; [ATP] 750 µM, M -5.523, 750 µM
  Kinase activity (% control): 21.316 % control and 15.871 % control
PKCε; [ATP] 750 µM, M -6, 750 µM
  Kinase activity (% control): 49.150 % control and 51.871 % control
PKCε; [ATP] 750 µM, M -6.523, 750 µM
  Kinase activity (% control): 85.111 % control and 100.290 % control and 67.168 % control
PKCε; [ATP] 750 µM, M -7, 750 µM
  Kinase activity (% control): 106.868 % control and 86.984 % control
PKCε; [ATP] 750 µM, M -7.523, 750 µM
  Kinase activity (% control): 104.196 % control and 100.982 % control
PKCε; [ATP] 750 µM, M -8, 750 µM
  Kinase activity (% control): 105.985 % control and 104.633 % control
PKCε; [ATP] 750 µM, M -8.523, 750 µM
  Kinase activity (% control): 106.157 % control and 106.288 % control
PKCε; rightward shift at higher [ATP]
  Mode of inhibition of PKCε: competing with ATP

Source: paper PMC12016938, “A small molecule PKCε inhibitor reduces hyperalgesia induced by paclitaxel or opioid withdrawal” (JCI Insight, 2025)
